Laboratory results published in paper PMC10532523, “Rifamycin-Related Polyketides from a Marine-Derived Bacterium Salinispora arenicola and Their Cytotoxic Activity” (Marine Drugs, 2023).

Columns and labels:
Type in all cases: cell-based
[1] = system: ACHN; test: Cytotoxicity, SRB assay, ACHN (renal); conditions: Homo sapiens; ACHN (renal) cells; read-out: Growth inhibition GI50
Experimental: (§1) The cytotoxic activities of 1 and 6–8 against adherent cells and suspension cells were conducted by SRB (sulforhodamine B) assay and CellTiter-Glo assay, respectively, as described earlier. The compounds were dissolved and serially diluted in dimethyl sulfoxide. GraphPad Prism 8 (GraphPad Software Inc., San Diego, CA, USA) was used to determine GI50 values. Cancer and normal cell lines were purchased from the Japanese Cancer Research Resources Bank (JCRB) (NUGC-3, JCRB Cell Bank/Cat. # JCRB0822), the DSMZ-German Collection of Microorganisms and Cell Cultures (RPMI-8402, DSMZ/Cat # ACC 290; WSU-DLCL2, DSMZ/Cat # ACC 575), and the American Type Culture Collection (ATCC) (PC-3, ATCC/Cat. # CRL-1435; MDA-MB-231, ATCC/Cat. # HTB-26; ACHN, ATCC/Cat. # CRL-1611; NCI-H23, ATCC/Cat. # CRL-5800; HCT-15, ATCC/Cat. # CCL-225; HL-60, ATCC/Cat. # CCL-240; Raji, ATCC/Cat # CCL-86; K562, ATCC/Cat # CCL-243; NALM6, ATCC/Cat # CRL-3273; U266, ATCC/Cat # TIB-196); RPMI-1788, ATCC/Cat # TIB-156). Cells were cultured in Dulbecco’s Modified Eagles medium (ACHN, MDA-MB-231), RPMI-1640 medium (HCT-15, PC-3, NUGC-3, NCI-H23, Raji, NALM6, U266, WSU-DLCL2, RPMI-1788) or Improved Minimum Essential Medium (K562, HL-60), supplemented with fetal bovine serum and penicillin-streptomycin.

[2] = system: MDA-MB-231; test: Cytotoxicity, SRB assay, MDA-MB-231 (breast); conditions: Homo sapiens; MDA-MB-231 (breast) cells; read-out: Growth inhibition GI50
Experimental: as §1

[3] = system: HCT-15; test: Cytotoxicity, SRB assay, HCT-15 (colon); conditions: Homo sapiens; HCT-15 (colon) cells; read-out: Growth inhibition GI50
Experimental: as §1

[4] = system: PC-3; test: Cytotoxicity, SRB assay, PC-3 (prostate); conditions: Homo sapiens; PC-3 (prostate) cells; read-out: Growth inhibition GI50
Experimental: as §1

[5] = system: NUGC-3; test: Cytotoxicity, SRB assay, NUGC-3 (stomach); conditions: Homo sapiens; NUGC-3 (stomach) cells; read-out: Growth inhibition GI50
Experimental: as §1

[6] = system: NCI-H23; test: Cytotoxicity, SRB assay, NCI-H23 (lung); conditions: Homo sapiens; NCI-H23 (lung) cells; read-out: Growth inhibition GI50
Experimental: as §1

[7] = system: HL-60; test: Cytotoxicity, CellTiter-Glo assay, HL-60 (AML); conditions: Homo sapiens; HL-60 (acute myelogenous leukemia) cells; read-out: Growth inhibition GI50
Experimental: as §1

[8] = system: Raji; test: Cytotoxicity, CellTiter-Glo assay, Raji (Burkitt's lymphoma); conditions: Homo sapiens; Raji (Burkitt's lymphoma) cells; read-out: Growth inhibition GI50
Experimental: as §1

[9] = system: K562; test: Cytotoxicity, CellTiter-Glo assay, K562 (CML); conditions: Homo sapiens; K562 (chronic myelogenous leukemia) cells; read-out: Growth inhibition GI50
Experimental: as §1

[10] = system: RPMI-8402; test: Cytotoxicity, CellTiter-Glo assay, RPMI-8402 (T-ALL); conditions: Homo sapiens; RPMI-8402 (T cell acute lymphocytic leukemia) cells; read-out: Growth inhibition GI50
Experimental: as §1

[11] = system: NALM6; test: Cytotoxicity, CellTiter-Glo assay, NALM6 (B-ALL); conditions: Homo sapiens, NALM-6; NALM6 (B cell acute lymphocytic leukemia) cells; read-out: Growth inhibition GI50
Experimental: as §1

[12] = system: U266; test: Cytotoxicity, CellTiter-Glo assay, U266 (multiple myeloma); conditions: Homo sapiens, U-266; U266 (multiple myeloma) cells; read-out: Growth inhibition GI50
Experimental: as §1

[13] = system: WSU-DLCL2; test: Cytotoxicity, CellTiter-Glo assay, WSU-DLCL2 (DLBCL); conditions: Homo sapiens, WSUDLCL2; WSU-DLCL2 (diffuse large B cell lymphoma) cells; read-out: Growth inhibition GI50
Experimental: as §1

[14] = system: RPMI-1788; test: Cytotoxicity, CellTiter-Glo assay, normal RPMI-1788 (B lymphocytes); conditions: RPMI-1788 (normal B lymphocytes) cell line; read-out: Growth inhibition GI50
Experimental: as §1

[15] = system: solid cancer cells; test: Cytotoxicity against solid cancer cells (SRB assay); conditions: span over solid cancer cell lines
Experimental: as §1

[16] = system: all the tested cell lines; test: Cytotoxicity against the whole panel (one normal, six solid, seven blood cancer cell lines); conditions: span over one normal, six solid and seven blood cancer cell lines; read-out: GI50 across all the tested cell lines
Experimental: as §1

Compound | GI50 [1] [µM] | GI50 [2] [µM] | GI50 [3] [µM] | GI50 [4] [µM] | GI50 [5] [µM] | GI50 [6] [µM] | GI50 [7] [µM] | GI50 [8] [µM] | GI50 [9] [µM] | GI50 [10] [µM] | GI50 [11] [µM] | GI50 [12] [µM] | GI50 [13] [µM] | GI50 [14] [µM] | GI50 [15] [µM] | GI50 [16] [µM]
COc1cccc2c1C(=O)c1c(O)c3c(c(O)c1C2=O)C[C@@](O)(C(=O)CO)C[C@@H]3O[C@H]1C[C@H](N)[C@H](O)[C@H](C)O1 [Adr., Adriamycin, reference compound] | 0.168 | 0.159 | 0.137 | 0.144 | 0.136 | 0.151 | 0.021 | 0.003 | 0.057 | 0.014 | 0.002 | 0.034 | 0.002 | 0.014 |  | 
CC1=CC=CC(C)C(O)C(C)C(O)C(C)C(O)C(C)C(O)C=COC2(C)Oc3c(C)cc4c(O)c(cc(OC(=O)CO)c4c3C2=O)NC1=O (centres unmarked) [Compound 6, 8-deoxy-25-desacetyl-27-demethyl-rifamycin L] | > 30 | > 30 | 24.2 | 26.6 | 29.8 | 21.8 | 4.79 | 12.1 | 9.53 | 2.45 | 4.76 | 2.3 | 5.4 | 4.93 | 21.8 to 29.8 | 
CC(=O)CC1OC(C(C)C(O)C(C)C(O)C(C)C=CC=C(C)C(N)=O)C(C)C1O (centres unmarked) [Compound 7, salinifuran A] | > 30 | > 30 | > 30 | > 30 | > 30 | > 30 | > 30 | > 30 | > 30 | > 30 | 26.8 | > 30 | > 30 |  |  | 
C/C(=C/C=C/[C@H](C)[C@H](O)[C@@H](C)[C@@H](O)[C@@H](C)[C@@H]1O[C@@]2(C)CC[C@@H](O2)[C@H]1C)C(N)=O [Compound 8, saliniketal A] | > 30 | > 30 | > 30 | > 30 | > 30 | > 30 | > 30 | > 30 | > 30 | > 30 | > 30 | > 30 | > 30 |  |  | > 30
CC(=CC1C(=O)OC(C(C)C(O)C(C)C(O)C(C)C=CC=C(C)C(=O)NC2=CC(=O)c3cc(O)c(C)c(O)c3C2=O)C(C)C1O)C(=O)O (centres unmarked) [Compound 1, salinisporamycin C] | 8.45 | 8.79 | 9.25 | 8.46 | 7.41 | 8.05 | 9.96 | 5.37 | 7.17 | 4.75 | 4.28 | 2.63 | 2.36 | 8.47 |  | 2.36 to 9.96
